Experimental data from patent publication US5446147A (Trustees of the University of Pennsylvania, priority 1992, dated 1995).
Entries after “also recorded” stand apart in the source; their conditions may differ. Values belong to the molecule of their own block, whether it stands above or below them.

How the values were obtained:
Dopamine D-2 Receptors = settings: Table II, known dopamine D-2 receptor ligands; cited from earlier work
[1] = biological target: T1, dopamine D2 receptor (Rat Striatal Membranes) (Rattus norvegicus, UniProt P61169); assay: Competition for ^125 I-FIDA-2 binding to rat striatal membranes
T1 construct: Rat tissue homogenates were prepared as described previously; from tissue; host or cells: rat striatal membranes (tissue homogenate)
Procedure: (§1) Rat tissue homogenates were prepared as described previously. Murphy, R. A., et al., J. Med. Chem. 33, 171-178 (1990). The binding assays were performed by incubating 50 μL of tissue preparations containing 40-60 μg of protein with appropriate amounts of ^125 I-labeled ligand and competitors in a total volume of 0.2 mL of the assay buffer. After an incubation period of 15 min at 37° C. (with stirring), the samples were rapidly filtered in a cell harvester (Brandel M-24R) under vacuum through Whatman GF/B glass-fiber filters pretreated with […] protamine base and washed with 3×5 mL of cold (4° C.) 50 mM Tris-HCI buffer, pH 7.4. The nonspecific binding was obtained in the presence of 10 μM (+)butaclamol. The filters were counted in a γ counter (Beckman 5500) at an efficiency of 70%. Both Scatchard and competition experiments were analyzed with the iterative nonlinear least squares curve-fitting program LIGAND.

[2] = biological target: T1, dopamine D2 receptor (Rat Striatal Membranes); assay: Competition for ^125 I-FIDA-1 binding to rat striatal membranes
Procedure: as §1

[3] = In vivo biodistribution in rats (organ uptake); design: species or system rat; settings: iv; for liver uptake (in words): first 30 min
Procedure: Male Sprague-Dawley rats (225-300 g), which were allowed free access to food and water, were used for the vivo biodistribution study. […] The organs of interest were removed and weighed and the radioactivity was counted with a Beckman gamma automatic counter (Model 4000). The percent dose per organ was calculated by a comparison of the tissue counts to suitably diluted aliquots of the injected material. Total activities of blood and muscle were calculated under the assumption that they were 7% and 40% of the total body weight, respectively.

[4] = system: dopamine receptors (striatum); assay: Regional brain distribution in rats (uptake ratio of region to cerebellum); assay type: in vivo, rat; settings: iv
Procedure: Male Sprague-Dawley rats (225-300 g), which were allowed free access to food and water, were used for the vivo biodistribution study. While under halothane anesthesia, 0.2 mL of a saline solution containing [^125 I]FIDA 8 or 10 (8-10 μCi) was injected […] into the femoral vein of rats, and they were sacrificed at various time points postinjection by cardiac excision under halothane anesthesia. The organs of interest were removed and weighed and the radioactivity was counted with a Beckman gamma automatic counter (Model 4000). The percent dose per organ was calculated by a comparison of the tissue counts to suitably diluted aliquots of the injected material. Total activities of blood and muscle were calculated under the assumption that they were 7% and 40% of the total body weight, respectively.
Regional brain distribution in rats was obtained after an injection of [^125 I]FIDA 8 or 10. By dissecting, weighing, and counting samples from different brain regions (cortex, striatum, hippocampus, and cerebellum), the percent dose/gram of sample was calculated by comparing the sample counts with the count of the diluted initial dose. The uptake ratio of each region was obtained by dividing the percent dose/gram of each region by that to the cerebellum.

[5] = rat striatal membranes, 15 min at 37° C., nonspecific binding with 10 μM (+)butaclamol, read-out: Ki, inhibition constant on ^125 I-FIDA-2 binding

T1 sequence (P61169 whole entry): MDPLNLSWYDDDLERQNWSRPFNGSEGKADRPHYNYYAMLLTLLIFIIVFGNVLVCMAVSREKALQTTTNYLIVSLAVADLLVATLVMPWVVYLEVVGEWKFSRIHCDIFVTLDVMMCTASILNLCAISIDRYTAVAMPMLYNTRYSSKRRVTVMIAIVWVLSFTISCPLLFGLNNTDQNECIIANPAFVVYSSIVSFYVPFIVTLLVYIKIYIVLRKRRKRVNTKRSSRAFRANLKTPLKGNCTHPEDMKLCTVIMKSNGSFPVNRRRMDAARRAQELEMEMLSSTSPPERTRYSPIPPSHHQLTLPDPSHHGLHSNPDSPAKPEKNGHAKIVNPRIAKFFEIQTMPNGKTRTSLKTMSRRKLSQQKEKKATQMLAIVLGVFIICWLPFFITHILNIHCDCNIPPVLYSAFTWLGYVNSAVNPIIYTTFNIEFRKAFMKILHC

Structure (SMILES): CCN1CCC[C@H]1CNC(=O)c1cc(I)cc(OC)c1OC [Epidepride]
Kd (Dopamine D-2 Receptors): 0.024 nM

Structure (SMILES): COc1cc(I)cc(C(=O)NC[C@H]2CCCN2Cc2ccc(F)cc2)c1OC [FIDA2, R(+)-2,3-dimethoxy-N-[(1-(4' -fluorobenzyl)-2-pyrrolidinyl)methyl]-5-iodobenzamide]
binding specificity and selectivity (FIDA2 radioligand) ([1]; competition study with various types of receptor ligands): specifically binds to the dopamine D2 receptor with great selectivity

Structure (SMILES): CCN1CCC[C@H]1CNC(=O)c1cc(CCCF)cc(OC)c1OC [Fluoropropyl-Epidepride]
Kd (Dopamine D-2 Receptors): 0.03 nM

Structure (SMILES): CCN1CCC[C@H]1CNC(=O)c1cc(I)cc2c1OCC2 [IBF]
Kd (Dopamine D-2 Receptors): 0.106 nM

Structure (SMILES): CCN1CCC[C@H]1CNC(=O)c1c(OC)ccc(I)c1O [IBZM]
Kd (Dopamine D-2 Receptors): 0.426 nM

Structure (SMILES): CCN1CCC[C@H]1CNC(=O)c1c(O)c(I)cc(OC)c1OC [Ioxipride]
Kd (Dopamine D-2 Receptors): 0.019 nM

Structure (SMILES): CCN1CCC[C@H]1CNC(=O)c1c(O)c(Cl)cc(Cl)c1OC [Raclopride]
Kd (Dopamine D-2 Receptors): 10 nM

Ki ([2]; rat striatal membranes, 15 min at 37° C., nonspecific binding with 10 μM (+)butaclamol, read-out: Ki, inhibition constant on ^125 I-FIDA-1 binding): 33.1 ± 1.5 nM
Ki [1, 5]: 23.3 ± 2.2 nM
Structure (SMILES): COc1cccc(OC)c1OCCNCC1COc2ccccc2O1 (stereo not drawn) [WB 4101]

brain uptake (in words) [3]: moderate brain uptake
liver clearance (in words) [3]: rapidly washed out at 1 h postinjection
liver uptake (in words) [3]: remained high for the first 30 min
increase in target to nontarget ratio vs. time, hippocampus and cortex [4]: not observed
retention in striatum (in words) [4]: prolonged retention
striatum/cerebellum (ST/CB) ratio ([4]; 30 min): 8.26
striatum/cerebellum (ST/CB) ratio ([4]; 60 min): 29.3
striatum/cerebellum (ST/CB) ratio ([4]; printed 10 min): 60.7
Structure (SMILES): CCN1CCC[C@H]1CNC(=O)c1cc([123I])cc(OC)c1OCCF [[^123 I]FIDA1]
brain washout (in words) ([3]; 1 h after injection): a large portion of the radioactivity has washed out from the brain; also recorded: the radioactivity had washed out from the brain

liver clearance (in words) [3]: slower than it was for [^123 I]FIDA1
liver uptake (in words) [3]: High initial uptake in the liver
brain uptake ([3]; time not stated): 0.98 % dose/organ
ST/CB ratio ([4]; 2 min): 1.2
ST/CB ratio ([4]; 120 min): 25.2
Structure (SMILES): COc1cc([123I])cc(C(=O)NC[C@H]2CCCN2Cc2ccc(F)cc2)c1OC [[^123 I]FIDA2]
brain uptake (in words) [3]: better brain uptake in rats than [^123 I]FIDA1; also recorded: higher brain uptake than [^123 I]FIDA1

Structure (SMILES): CN1[C@@H]2CC[C@H]1C[C@@H](OC(=O)C(CO)c1ccccc1)C2 (stereo partly drawn) [atropine]
Ki [2]: > 10000 nM
Ki [1]: > 10000 nM

Structure (SMILES): COC(=O)[C@@H]1[C@H]2C[C@H]3c4[nH]c5ccccc5c4CCN3C[C@@H]2CC[C@@H]1O [yohimbine]
Ki [1, 5]: 505 ± 70 nM
